Like-named read-outs stand apart in the source and are kept apart here.
Legend:
S. pasteurii urease = target: T1, S. pasteurii urease (Sporosarcina pasteurii, UniProt P41020); test: Purified S. pasteurii urease inhibition, cresol red assay, no preincubation; format: biochemical, Sporosarcina pasteurii CCM 2056; conditions: native purified urease, slow-binding, read-out: K i, S. pasteurii urease
T1 construct: The native urease, purified from S. pasteurii CCM 2056; made in house; host or cells: Sporosarcina pasteurii CCM 2056 (native, endogenous enzyme, not recombinant)
T1 sequence (P41020 whole entry): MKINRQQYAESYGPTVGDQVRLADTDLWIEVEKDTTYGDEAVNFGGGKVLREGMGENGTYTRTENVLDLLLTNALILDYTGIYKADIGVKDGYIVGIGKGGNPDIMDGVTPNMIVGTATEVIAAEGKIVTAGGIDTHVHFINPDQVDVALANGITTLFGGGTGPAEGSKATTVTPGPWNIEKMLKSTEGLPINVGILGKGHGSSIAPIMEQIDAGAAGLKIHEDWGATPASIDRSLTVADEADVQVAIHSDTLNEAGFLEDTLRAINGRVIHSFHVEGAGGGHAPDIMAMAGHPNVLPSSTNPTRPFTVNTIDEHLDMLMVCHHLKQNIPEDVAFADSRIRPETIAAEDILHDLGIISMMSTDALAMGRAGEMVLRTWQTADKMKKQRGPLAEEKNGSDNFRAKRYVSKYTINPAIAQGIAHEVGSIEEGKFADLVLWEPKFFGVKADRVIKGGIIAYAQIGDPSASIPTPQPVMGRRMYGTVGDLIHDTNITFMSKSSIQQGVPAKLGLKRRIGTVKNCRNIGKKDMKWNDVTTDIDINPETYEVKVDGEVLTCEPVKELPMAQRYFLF
T1 sequence (P41022 whole entry, further chain): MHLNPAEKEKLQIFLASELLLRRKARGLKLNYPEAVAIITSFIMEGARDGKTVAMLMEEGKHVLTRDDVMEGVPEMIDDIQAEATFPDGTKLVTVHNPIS
T1 sequence (P41021 whole entry, further chain): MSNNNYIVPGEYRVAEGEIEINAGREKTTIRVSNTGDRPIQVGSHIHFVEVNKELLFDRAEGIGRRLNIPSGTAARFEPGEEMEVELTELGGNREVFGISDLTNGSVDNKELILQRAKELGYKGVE
Procedure: compounds. Helicobacter pylori 2CLM belongs to the collection of the Department of Microbiology, Wrocław Medical University, Poland.
Purification of S. pasteurii urease
The native urease from the cells of S. pasteurii was induced and purified in a five-step chromatographic procedure, as previously described.S5 The protein concentration was […]
(§1) Enzymatic activity assays
(§2) Purified urease activity with the addition of the organoselenium compounds studied was measured using cresol red as an indicator of pH changes caused by ammonia produced during ureolysis.S6 The reaction was carried out in 3 mM phosphate buffer containing 30 mM urea, 0.01 % w/v cresol red, purified urease (at a concentration that led to a change in A570 of approximately 1.5 in 90 min) and studied compounds at various concentrations. The reaction was followed by using a TECAN Sunrise spectrometer , and the resulting progress curves were further analyzed to determine the activity and binding mechanism. The rea ction was followed in a system without preincubation of the enzyme with the benzisoselenazolone derivatives (addition of urease initiated the measurement).
The progress curves were fitted to the following equation to calculate the apparent reaction rate constants ( kapp):
P = v ∗ t + 0 s ∗ (1 − e−kapp∗t)
P – product concentration; t – time; v0 – initial state velocity; vs – steady state velocity.
The kapp values were then plotted against the inhibitor concentration [I], and the resulting linear function was used to calculate the dissociation […] of the EI complex (Ki): […]

[1] = test system: H. pylori Tx30a (ATCC 51932) live cells; test: Whole cell ureolysis assay, cresol red; format: cell-based, Helicobacter pylori
Procedure: as §1
as §2, with “measurement). […]” for “measurement).”
Whole cell ureolysis assays
To measure the inhibitory activity of the compounds studied against whole cells of ureolytic pathogens, the cresol red reaction was carried out using H. pylori cells that were washed twice with 10 mM PBS and used as a biocatalyst.S6 The reaction mixture contained 10 mM PBS, 10 […]
mM urea, bacterial cells, and urease inhibitors. The results were then used to calculate the IC50 values of the organoselenium compounds against the whole cell ureolysis of H. pylori. […]

[2] = Helicobacter pylori, ATCC51932, read-out: IC50, H. pylori whole-cell ureolysis, live cells of H. pylori Tx30a

O=c1c2ccccc2[se]n1Cc1ccccc1F [4a]
Ki (S. pasteurii urease): 3.61 ± 0.28 nM
IC50 [1, 2]: 171 ± 5.4 nM

O=c1c2ccccc2[se]n1Cc1cccc(F)c1 [4b]
Ki (S. pasteurii urease): 12.2 ± 0.4 nM
IC50 [1, 2]: 154 ± 8.4 nM

O=c1c2ccccc2[se]n1Cc1cccc(C(F)(F)F)c1 [4c]
Ki (S. pasteurii urease): 2.5 ± 0.24 nM
IC50 [1, 2]: 112 ± 2.4 nM

O=c1c2ccccc2[se]n1Cc1ccc(F)cc1 [4d]
Ki (S. pasteurii urease): 25.4 ± 2.8 nM
IC50 [1, 2]: 193 ± 8.1 nM

O=c1c2ccccc2[se]n1Cc1ccc(C(F)(F)F)cc1 [4e]
Ki (S. pasteurii urease): 2.1 ± 0.19 nM
IC50 [1, 2]: 170 ± 1.6 nM

O=c1c2ccccc2[se]n1Cc1ccc(Cl)cc1Cl [4f]
Ki (S. pasteurii urease): 0.594 ± 0.032 nM
IC50 [1, 2]: 345 ± 16 nM

O=c1c2ccccc2[se]n1Cc1ccc(F)cc1F [4g]
Ki (S. pasteurii urease): 2.52 ± 0.19 nM
IC50 [1, 2]: 287 ± 18 nM

O=c1c2ccccc2[se]n1Cc1cc(Cl)ccc1Cl [4h]
Ki (S. pasteurii urease): 9.04 ± 0.22 nM
IC50 [1, 2]: 341 ± 23 nM

O=c1c2ccccc2[se]n1Cc1cc(F)ccc1Cl [4i]
Ki (S. pasteurii urease): 0.543 ± 0.015 nM
IC50 [1, 2]: < 100 nM
IC50 ([1]; read-out: IC50, H. pylori whole-cell ureolysis, live cells of H. pylori Tx30a): 96.4 ± 1.7 nM

O=c1c2ccccc2[se]n1Cc1c(F)cccc1F [4j]
Ki (S. pasteurii urease): 1.16 ± 0.14 nM
IC50 [1, 2]: 218 ± 14 nM

O=c1c2ccccc2[se]n1Cc1ccc(Cl)c(Cl)c1 [4k]
Ki (S. pasteurii urease): 15.9 ± 0.65 nM
IC50 [1, 2]: 315 ± 4.7 nM

O=c1c2ccccc2[se]n1Cc1ccc(F)c(F)c1 [4l]
Ki (S. pasteurii urease): 3.35 ± 0.65 nM
IC50 [1, 2]: 110 ± 4.5 nM

— publication PMC11995230 (ACS Medicinal Chemistry Letters, 2025)
